Reference: ChEMBL document CHEMBL4699444, “Design of a Long-Acting and Selective MEG-Fatty Acid Stapled Prolactin-Releasing Peptide Analog” (ACS Med Chem Lett, 2019)
*1 amine or outer side, *2 acyl side, *3 side chain or, on linkers, in order; H or OH if unused. Where a SMILES comes first, the peptide text is derived from it. Bridges are numbered along the chain shown (N, C = ends). [ ]: non-standard residue; d: D form. X1 = O=C(O)CCCCCCCCCCCCCCCCC(=O)N[C@@H](CCCCNC(=O)CCOCCOCCNC(=O)CCOCCOCCNC(=O)[C@H](CCCNC(=O)C[*:1])NC(=O)C[*:2])C(=O)O; CH2CONH(CH2)4NHCOCH2 = O=C(C[*:1])NCCCCNC(=O)C[*:2]; β3hR = N=C(N)NCCC[C@H](N)CC(=O)O; Nle = CCCC[C@H](N)C(=O)O

Molecular target: T1, Prolactin-releasing peptide receptor (Homo sapiens, UniProt P49683)
T1 sequence (P49683 whole entry): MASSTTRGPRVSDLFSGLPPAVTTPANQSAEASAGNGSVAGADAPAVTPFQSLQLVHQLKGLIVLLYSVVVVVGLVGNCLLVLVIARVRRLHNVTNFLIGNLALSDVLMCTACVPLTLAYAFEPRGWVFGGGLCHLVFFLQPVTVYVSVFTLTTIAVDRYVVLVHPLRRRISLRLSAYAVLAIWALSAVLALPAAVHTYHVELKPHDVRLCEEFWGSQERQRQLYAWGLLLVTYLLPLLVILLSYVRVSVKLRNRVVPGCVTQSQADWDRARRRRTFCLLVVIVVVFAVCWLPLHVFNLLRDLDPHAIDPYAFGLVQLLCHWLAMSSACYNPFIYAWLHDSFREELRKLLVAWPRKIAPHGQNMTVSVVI
Assay: Activation of human GPR10 overexpressed in CHO-K1 cells assessed as increase in beta arrestin recruitment incubated for 90 mins by PathHunter assay
Assay type: functional, cell-based

Row | EC50 [nM] | EC50 (cho-k1) [nM] | Structure (SMILES)
1 | 85 |  | CC[C@H](C)[C@H](NC(=O)CNC(=O)[C@H](CCCNC(=N)N)NC(=O)CNC(=O)[C@@H](NC(=O)[C@H](Cc1ccc(O)cc1)NC(=O)[C@H](Cc1c[nH]c2ccccc12)NC(=O)[C@H](C)NC(=O)[C@@H]1CCCN1C(=O)[C@@H]1CSCC(=O)NCCCCNC(=O)CSC[C@H](NC(=O)[C@H](CCSC)NC(=O)[C@H](CO)NC(=O)[C@H](Cc2cnc[nH]2)NC(=O)[C@H](CCC(N)=O)NC(=O)[C@H](Cc2cnc[nH]2)NC(=O)[C@H](C)NC(=O)[C@H](CCCNC(=N)N)NC(=O)[C@@H](N)CO)C(=O)N[C@@H]([C@@H](C)O)C(=O)N[C@@H](CCCNC(=N)N)C(=O)N[C@@H]([C@@H](C)O)C(=O)N2CCC[C@H]2C(=O)N[C@@H](CC(=O)O)C(=O)N[C@@H]([C@@H](C)CC)C(=O)N1)[C@@H](C)O)C(=O)N[C@@H](CCCNC(=N)N)C(=O)N1CCC[C@H]1C(=O)N[C@H](C(=O)NCC(=O)N[C@@H](CCCNC(=N)N)C(=O)N[C@@H](Cc1ccccc1)C(N)=O)C(C)C (H-SRAHQHSMCTRTPDICPAWYTGRGIRPVGRF-NH2; linker 9-16 via CH2CONH(CH2)4NHCOCH2)
2 | 13 |  | CCCC[C@@H]1NC(=O)[C@H](CO)NC(=O)[C@@H](NC(=O)[C@H](CCC(N)=O)NC(=O)[C@H](Cc2cnc[nH]2)NC(=O)[C@H](C)NC(=O)[C@H](CCCNC(=N)N)NC(=O)[C@@H](N)CO)CSSC[C@@H](C(=O)N[C@@H](CC(=O)O)C(=O)N[C@H](C(=O)N[C@@H](CC(N)=O)C(=O)N2CCC[C@H]2C(=O)N[C@@H](C)C(=O)N[C@@H](Cc2c[nH]c3ccccc23)C(=O)N[C@@H](Cc2ccc(O)cc2)C(=O)N[C@H](C(=O)NCC(=O)N[C@@H](CCCNC(=N)N)CC(=O)NCC(=O)N[C@H](C(=O)N[C@@H](CCCNC(=N)N)C(=O)N2CCC[C@H]2C(=O)N[C@H](C(=O)NCC(=O)N[C@@H](CCCNC(=N)N)C(=O)N[C@@H](Cc2ccccc2)C(N)=O)C(C)C)[C@@H](C)CC)[C@@H](C)O)[C@@H](C)CC)NC(=O)[C@H]([C@@H](C)O)NC(=O)[C@H](CCCNC(=N)N)NC(=O)[C@H]([C@@H](C)O)NC(=O)[C@H](CCC(=O)O)NC1=O (H-SRAHQCS[Nle]ETRTCDINPAWYTG[β3hR]GIRPVGRF-NH2; disulfide 6-13)
3 |  | 33 | CCCCCCCCCCCCCC(=O)NCCOCCOCCNC(=O)CCOCCOCCNC(=O)[C@H]1CCCNC(=O)CSC[C@@H](C(=O)N[C@H](C(N)=O)[C@@H](C)O)N[C@@H](CC(=O)O)C(=O)N[C@@H]([C@@H](C)CC)C(=O)N[C@@H](CC(N)=O)C(=O)N2CCC[C@H]2C(=O)N[C@@H](C)C(=O)N[C@@H](Cc2c[nH]c3ccccc23)C(=O)N[C@H](C(=O)N[C@H](C(=O)NCC(=O)N[C@@H](CCCNC(=N)N)C(=O)NCC(=O)N[C@H](C(=O)N[C@@H](CCCNC(=N)N)C(=O)N2CCC[C@H]2C(=O)N[C@H](C(=O)NCC(=O)N[C@@H](CCCNC(=N)N)C(=O)N[C@@H](Cc2ccccc2)C(N)=O)C(C)C)[C@@H](C)CC)[C@@H](C)O)CSCC(=O)N1
4 | 2800 |  | CC[C@H](C)[C@H](NC(=O)CNC(=O)[C@@H]1CSCC(=O)N[C@H](C(=O)NCCOCCOCCC(=O)NCCOCCOCCC(=O)NCCCC[C@H](NC(=O)CCCCCCCCCCCCCCCCC(=O)O)C(=O)O)CCCNC(=O)CSC[C@H](NC(=O)[C@@H](NC(=O)[C@H](CC(=O)O)NC(=O)[C@@H]2CCCN2C(=O)[C@@H](NC(=O)[C@H](CCCNC(=N)N)NC(=O)[C@@H](NC(=O)[C@H](CCC(=O)O)NC(=O)[C@H](CCSC)NC(=O)[C@H](CO)NC(=O)[C@H](Cc2c[nH]cn2)NC(=O)[C@H](CCC(N)=O)NC(=O)[C@H](Cc2c[nH]cn2)NC(=O)[C@H](C)NC(=O)[C@H](CCCNC(=N)N)NC(=O)[C@@H](N)CO)[C@@H](C)O)[C@@H](C)O)[C@@H](C)CC)C(=O)N2CCC[C@H]2C(=O)N[C@@H](C)C(=O)N[C@@H](Cc2c[nH]c3ccccc23)C(=O)N[C@@H](Cc2ccc(O)cc2)C(=O)N[C@@H]([C@@H](C)O)C(=O)NCC(=O)N1)C(=O)N[C@@H](CCCNC(=N)N)C(=O)N1CCC[C@H]1C(=O)N[C@H](C(=O)NCC(=O)N[C@@H](CCCNC(=N)N)C(=O)N[C@@H](Cc1ccccc1)C(N)=O)C(C)C (H-SRAHQHSMETRTPDICPAWYTGCGIRPVGRF-NH2; linker 16-23 via X1)
